# Test results taken from EP0168515A2, “Process for the preparation of steffimycinones, analogues of steffimycinones so obtained, intermediates useful in the synthesis of those compounds, use of these compounds as antibacterials acid for the synthesis of antitumor products” (LABORATOIRES HOECHST S.A., priority 1984, dated 1986).
# Key:
# [1] = system: Bacillus pumilus (CNCM 7618); assay: Bactericidal action: growth inhibition test; assay type: cell-based; conditions: 100 µg/ml in 60% Dimethylsulfoxyd / 40% destilliertem Wasser, after 24 Stunden
# Method: (§1) Das Produkt der Formel II wurde an folgenden Mikroorganismen geprüft: • Bacillus pumilus (CNCM 7618) und • Bacillus subtilis (ATCC 6533)
# (§2) Es wurde auf eine Konzentration von 100 µg/ml in einem Gemisch aus 60% Dimethylsulfoxyd und 40% destilliertem Wasser solubilisiert.
# [2] = system: Bacillus subtilis (ATCC 6533); assay: Bactericidal action: growth inhibition test; assay type: cell-based; conditions: 100 µg/ml in 60% Dimethylsulfoxyd / 40% destilliertem Wasser, after 24 Stunden
# Method: as §1, §2
compound,measurement,setting,value
"COc1cc(O)c2c(c1)C(=O)c1cc3c(c(O)c1C2=O)C(O)CC(C)(O)C3=O (single isomer, unassigned; (+)) [Verbindung II, (+)-8-Desmethoxy-steffimycinon]",Wachstum,[1],völlig gehemmt
same,Wachstum,[2],völlig gehemmt
